Results on 36 compounds are retold here after patent US20240174680A1, “CDK2 INHIBITORS AND METHODS OF USING THE SAME” (Cedilla Therapeutics, Inc., priority 2021, published 2024).

Structures are written as SMILES.

One experiment addresses T1, CDK2/Cyclin E1 (Homo sapiens, UniProt P24941). Nature of the experiment: HotSpot kinase inhibition assay (radiometric, Histone H1 substrate). In kind it is biochemical. The settings on record: 10 μM ATP, read-out: Kinase Assay (CDK2/CCNE): IC50. The method, then:
Inhibition of CDK2/CCNE1 activities in the presence of compounds of the present disclosure was evaluated using the HotSpot™ assay (proprietary to Reaction Biology Corporation). In the assay, CDK2/Cyclin E1 (Signalchem C29-18G) catalyzed the transfer of radioactive phosphate to amino acid residues of Histone H1 (Sigma, H5505), which are detected radiometrically.
Reactions contained 20 mM HEPES pH 7.5, 10 mM MgCl2, 1 mM EGTA, 2 mM DTT, 0.02% Brij35, 0.02 mg/mL BSA, 0.1 mM Na3VO4, 1% DMSO, 1.5 nM CDK2/Cyclin E1, 10 μM ATP, and 20 μM Histone H1.
CDK2/Cyclin E1 and Histone H1 were mixed in reaction buffer. To this mixture dose titrations of inhibitors in 100% DMSO were added in by acoustic transfer. The compound mixtures were incubated for 20 minutes, then the kinase reactions were initiated by the addition of a mixture of ATP and ^33P ATP for final concentrations of 10 μM total ATP, 20 μM Histone H1, and 1.5 nM CDK2/Cyclin E1. The reactions were carried out for 120 minutes, then spotted on a P81 ion exchange filter paper, and extensively washed with 0.75% phosphoric acid. The resulting radioactive counts were normalized to yield % activity, plotted against compound concentration, and fit to a four-parameter equation to determine the IC50 for each compound.
Consider `CC1(C)C[C@@H]1C(=O)N1CC2(CN(C(=O)c3cnn(Cc4ccccc4)c3)C[C@H]2C(=O)NCc2ccc(Cl)nn2)C1` [I-376], for which the IC50 lay within 1 to 10 µM.

Regarding `CNC(=O)[C@@H](NC(=O)[C@@H]1CN(C(=O)c2cn[nH]c2)CC12CN(C(=O)C1CC1(C)C)C2)[C@@H](C)OCc1ccccc1` (stereo partly shown) [I-5A], the IC50 is ≤ 1 µM.

Take `CNC(=O)[C@@H](NC(=O)C1CN(C(=O)c2cnn(Cc3ccccc3)c2)CC12CN(C(=O)C1CC1(C)C)C2)[C@@H](C)OCc1cccc(C#N)c1` (stereo partly shown) [I-6]: the IC50 was > 100 µM.

As for `CNC(=O)[C@@H](NC(=O)[C@H]1CN(C(=O)c2cn[nH]c2)CC12CN(C(=O)C1CC1(C)C)C2)[C@@H](C)OCc1ccccc1` (stereo partly shown) [I-5B], the IC50 fell in the range of 1 to 10 µM.

For `CNC(=O)[C@@H](NC(=O)[C@H]1CN(C(=O)c2cnn(Cc3ccccc3)c2)CC12CN(C(=O)C1CC(C)(C)C1)C2)[C@@H](C)OCc1ccccc1` [I-4B], the IC50 was > 100 µM.

As to `CNC(=O)[C@@H](NC(=O)C1CN(C(=O)c2cnn(Cc3ccccc3)c2)CC12CN(C(=O)C1CC1(C)C)C2)[C@@H](C)OC` (stereo partly drawn) [I-2, 6-(1-benzyl-1H-pyrazole-4-carbonyl)-2-(2,2-dimethylcyclopropane-1-carbonyl)-N-((2S,3R)-3-methoxy-1-(methylamino)-1-oxobutan-2-yl)-2,6-diazaspiro[3.4]octane-8-carboxamide], the IC50 lay within 10 to 100 µM.

As for `CNC(=O)[C@@H](NC(=O)C1CN(C(=O)c2cnn(Cc3ccccc3)c2)CC12CN(C(=O)C1CC1(C)C)C2)[C@@H](C)OCC1CCCCC1` (mixture of isomers) [I-12], the IC50 is ≤ 1 µM.

As for `CNC(=O)[C@@H](NC(=O)C1CN(C(=O)c2cnn(Cc3ccccc3)c2)CC12CN(C(=O)C1CC1(C)C)C2)[C@@H](C)O` (stereo partly shown) [I-88 mixture], the IC50 lay in the range of 10 to 100 µM.

Consider `C[C@H](CNC(=O)C1CN(C(=O)c2cnn(Cc3ccccc3)c2)CC12CN(C(=O)C1CC1(C)C)C2)OCc1ccccc1` (stereo partly shown) [I-7], for which the IC50 is ≤ 1 µM.

`CNC(=O)[C@H](COCc1ccccc1)NC(=O)C1CN(C(=O)c2cnn(Cc3ccccc3)c2)CC12CN(C(=O)C1CC1(C)C)C2` (stereo partly shown) [I-1]: the IC50 was 1 to 10 µM.

`CNC(=O)[C@@H](NC(=O)[C@@H]1CN(C(=O)c2cnn(Cc3ccccc3)c2)CC12CN(C(=O)C1CC(C)(C)C1)C2)[C@@H](C)OCc1ccccc1` [I-4A]: the IC50 was in the range of 10 to 100 µM.

The target of another experiment is T1, CDK2/Cyclin E1. Nature of the experiment: CDK2/Cyclin E1 Caliper LabChip EZ Reader mobility shift assay. In kind it is biochemical. More on the design: purchased Eurofins 14-475. The settings on record: read-out: Caliper Assay (CDK2/CCNE1): IC50. A digest of the protocol:
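Mobility-shift kinase assay: compound titrations preincubated 30 min with enzyme and ATP, reaction started with 5-FAM-QSPKKG-CONH2 peptide. Final 2.5 nM CDK2/Cyclin E1, 100 μM ATP, 1.5 μM peptide, HEPES pH 7.5; stopped with EDTA after 100 min. IC50 from four-parameter fit of normalized conversion ratio.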
As to `CC1(C)C[C@@H]1C(=O)N1CC2(CN(C(=O)c3cnn(Cc4ccccc4)c3)C[C@H]2C(=O)NCc2ccc(Cl)nn2)C1` [I-376], the IC50 fell in the range of 1 to 10 µM.

As for `CNC(=O)[C@@H](NC(=O)[C@@H]1CN(C(=O)c2cnc(COC(C)(C)C)s2)CC12CN(C(=O)[C@H]1CC1(C)C)C2)[C@@H](C)OCC1CCCCC1` [I-175A], the IC50 is ≤ 0.01 µM.

For the compound `CC1(C)C[C@@H]1C(=O)N1CC2(CN(C(=O)c3cnn(Cc4ccccc4)c3)C[C@@H]2C(=O)NCc2nnc[nH]2)C1` [I-191B], the IC50 is > 10 µM.

On to `C[C@@H](OCC1CCCCC1)[C@H](NC(=O)[C@@H]1CN(C(=O)c2cnn(Cc3ccccc3)c2)CC12CN(C(=O)[C@H]1CC1(C)C)C2)C(=O)N1CCC(F)(F)CC1` [I-149A], for which the IC50 was ≤ 0.01 µM.

For the compound `CC1(C)C[C@@H]1C(=O)N1CC2(CN(C(=O)c3cncs3)C[C@@H]2C(=O)N[C@@H](COCC2CCCCC2)C(=O)N2CCCCC2)C1` [I-293], the IC50 lay within 1 to 10 µM.

Turning to `C[C@@H](OC1(C2CCCCC2)CC1)[C@H](NC(=O)[C@@H]1CN(C(=O)c2cncs2)CC12CN(C(=O)[C@H]1CC1(C)C)C2)C(=O)N1CCCCC1` [I-357], the IC50 lay in the range of 0.01 to 0.1 µM.

For `COC[C@H]1CCCN(C(=O)[C@@H](NC(=O)[C@@H]2CN(C(=O)c3cncs3)CC23CN(C(=O)C(C)(C)C2CC2)C3)[C@@H](C)OC(C)C2CCC(F)(F)CC2)C1` (stereo partly shown) [I-399], the IC50 is ≤ 0.01 µM.

On to `CNC(=O)[C@@H](NC(=O)[C@@H]1CN(S(=O)(=O)c2cnn(Cc3ccccc3)c2)CC12CN(C(=O)[C@H]1CC1(C)C)C2)[C@@H](C)OCc1ccccc1` [I-79A], for which the IC50 is > 10 µM.

`C[C@@H](OCC1CCOCC1)[C@H](NC(=O)[C@@H]1CN(C(=O)c2cn[nH]c2)CC12CN(C(=O)[C@H]1CC1(C)C)C2)C(=O)N1CCC(F)(F)CC1` [I-297]: the IC50 was in the range of 0.01 to 0.1 µM.

Turning to `C[C@@H](OCc1ccccc1)[C@H](NC(=O)[C@@H]1CN(C(=O)c2cnn(Cc3ccccc3)c2)CC12CN(C(=O)[C@H]1CC1(C)C)C2)C(=O)N1CCC(F)(F)CC1` [I-280], the IC50 was ≤ 0.01 µM.

With `CNC(=O)[C@@H](NC(=O)[C@@H]1CN(C(=O)c2cncs2)CC12CN(C(=O)[C@H]1CC1(C)C)C2)C1(OCc2ccccc2)CC1` [I-375], the IC50 was in the range of 0.1 to 1 µM.

Turning to `CO[C@H]1COCC[C@@H]1NC(=O)[C@H]1CN(C(=O)c2cnn(Cc3ccccc3)c2)CC12CN(C(=O)[C@H]1CC1(C)C)C2` [I-131B], the IC50 is > 10 µM.

As for `CNC(=O)[C@@H](NC(=O)[C@H]1CN(C(=O)c2cnn(C)c2)CC12CN(C(=O)[C@H]1CC1(C)C)C2)[C@@H](C)OCc1ccccc1` [I-33B], the IC50 was > 10 µM.

Regarding `CC1(C)C[C@@H]1C(=O)N1CC2(CN(C(=O)c3cnn(Cc4ccccc4)c3)CC2C(=O)Nc2ncc(-c3ccccc3)o2)C1` (stereo partly shown) [I-93], the IC50 was 1 to 10 µM.

For `CNC(=O)[C@@H](NC(=O)[C@H]1CN(C(=O)c2cnn(CC3CCNCC3)c2)CC12CN(C(=O)[C@H]1CC1(C)C)C2)[C@@H](C)OCc1ccccc1` [I-19B], the IC50 is > 10 µM.

On to `C[C@@H](OCC1CCCCC1)[C@H](NC(=O)C1CN(C(=O)c2cnn(Cc3ccccc3)c2)CC12CN(C(=O)[C@H]1CC1(C)C)C2)C(=O)N1CC(C)(C)C1` (stereo partly shown) [I-153 mixture], for which the IC50 is ≤ 0.01 µM.

As for `CNC(=O)[C@@H](NC(=O)[C@@H]1CN(C(=O)c2cnn(CC3CC3)c2)CC12CN(C(=O)CC1CC1)C2)[C@@H](C)OCc1ccccc1` [I-53A], the IC50 was > 10 µM.

In the case of `CC1(C)C[C@@H]1C(=O)N1CC2(CN(C(=O)c3cncs3)C[C@H]2C(=O)N[C@@H](COCC2CCCCC2)C(=O)N2CCCCC2)C1` [I-286], the IC50 is 0.01 to 0.1 µM.

For `CNC(=O)[C@@H](NC(=O)[C@@H]1CN(C(=O)c2cnc[nH]2)CC12CN(C(=O)[C@H]1CC1(C)C)C2)[C@@H](C)OCc1ccccc1` [I-44A], the IC50 was > 10 µM.

With `C[C@@H](OCC1CCCCC1)[C@H](NC(=O)[C@@H]1CN(C(=O)c2cnn(Cc3ccccc3)c2)CC12CN(C(=O)[C@H]1CC1(C)C)C2)C(=O)N1CCC(c2ccncc2)CC1` [I-300], the IC50 was ≤ 0.01 µM.

For `CNC(=O)[C@@H](NC(=O)[C@@H]1CN(C(=O)c2cnn(Cc3ccccc3)c2)CC12CN(C(=O)[C@H]1CC1(C)C)C2)[C@@H](C)OCC1C[C@@H](C)C[C@@H](C)C1` (stereo partly shown) [I-249], the IC50 lay within 0.01 to 0.1 µM.

For `CNC(=O)[C@@H](NC(=O)[C@H]1CN(C(=O)c2cnn(Cc3ccccc3)c2)CC12CN(C(=O)C1(C3CC3)CC1)C2)[C@@H](C)OCc1ccccc1` [I-114B], the IC50 is > 10 µM.

Turning to `C[C@@H](OCC1CCCCC1)[C@H](NC(=O)[C@H]1CN(C(=O)c2cnn(Cc3ccccc3)c2)CC12CN(C(=O)[C@H]1CC1(C)C)C2)C(=O)N1CCC(F)(F)CC1` [I-149B], the IC50 lay in the range of 0.1 to 1 µM.

For `CC1(C)C[C@@H]1C(=O)N1CC2(CN(C(=O)c3cncs3)C[C@H]2C(=O)NC(c2cccc(C3CCCCC3)n2)P(C)(C)=O)C1` (stereo partly shown) [I-494], the IC50 was 0.1 to 1 µM.

Consider `C[C@@H](OCC1CCC(F)(F)CC1)[C@H](NC(=O)[C@@H]1CN(C(=O)c2cncs2)CC12CN(C(=O)[C@H]1CC1(C)C)C2)C(=O)N1CCC(C)(C)CC1` [I-386], for which the IC50 was ≤ 0.01 µM.

Consider `C[C@@H](OCC1CCCCC1)[C@@H](COC1CCC(F)(F)CC1)NC(=O)[C@@H]1CN(C(=O)c2cnn(Cc3ccccc3)c2)CC12CN(C(=O)[C@H]1CC1(C)C)C2` [I-271], for which the IC50 was ≤ 0.01 µM.
